Test results taken from US8674095B2, “Compounds for treating neuropsychiatric conditions” (Afraxis Holdings, Inc., priority 2008, dated 2014).

Columns and labels:
Assay type in all cases: biochemical
PAK1 = PAK1 (Homo sapiens, UniProt Q13153); assay: Z'Lyte fluorescence-based (FRET) kinase assay, PAK1; details: 50 μM ATP (Km apparent), 1 hr room temperature, 1% DMSO
Method: (§1) A fluorescence-based assay format is used to determine IC50 values of test compounds in vitro. Purified PAK kinase is incubated with ATP, and a test compound at various concentrations and a substrate peptide containing two fluorophores. In a second step, the reaction mix is incubated with a site-specific protease that cleaves non-phosphorylated but not phosphorylated substrate peptide, disrupting the FRET signal generated by the two fluorophores in the cleaved peptide (Z′Lyte™ Kinase assay platform; Life Technologies).
(§2) Reagents: 50 mM HEPES, pH 7.5; 0.01% BRIJ-35; 10 mM MgCl2; 1 mM EGTA, 2 uM substrate peptide Ser/Thr20 (proprietary Life Technologies Sequence), PAK enzyme [2.42-30.8 ng for PAK1, 0.29-6 ng for PAK2, 1.5-20 ng for PAK3 and 0.1-0.86 ng for PAK4; actual enzyme amounts depend on lot activity of the enzyme preparation]
(§3) Test compounds are dissolved in DMSO at various concentrations; the final DMSO concentration in the assay reaction is 1%.
(§4) ATP concentration at Km apparent is used in the assay [50 μM ATP for PAK1 assay, 75 μM ATP for PAK2 assay, 100 μM ATP for PAK3 assay, 5 μM ATP for PAK-4 assay] in a total assay volume of […] Assay reactions are incubated at room temperature for 1 hr. Following the kinase reaction, 5 μl of 1:256 dilution of development solution A (Life Technologies) is added and the reaction mix is incubated for an additional 1 hr at room temperature.
(§5) Plates are analyzed in a standard fluorescence plate reader (Tecan or equivalent) using an excitation wavelength of 400 nm and emission wavelengths of 445 nm and 520 nm. Inhibition of kinase reaction is determined by emission ratio=emission@445 nm/emission@520 nm

PAK2 = PAK2 (Homo sapiens, UniProt Q13177); assay: Z'Lyte fluorescence-based (FRET) kinase assay, PAK2; details: 75 μM ATP (Km apparent), 1 hr room temperature, 1% DMSO
Method: as §1, §2, §3, §4, §5

PAK3 = PAK3 (Homo sapiens, UniProt O75914); assay: Z'Lyte fluorescence-based (FRET) kinase assay, PAK3; details: 100 μM ATP (Km apparent), 1 hr room temperature, 1% DMSO
Method: as §1, §2, §3, §4, §5

PAK4 = PAK4 (Homo sapiens, UniProt O96013); assay: Z'Lyte fluorescence-based (FRET) kinase assay, PAK4; details: 5 μM ATP (Km apparent), 1 hr room temperature, 1% DMSO
Method: as §1, §2, §3, §4, §5

PAK1, PAK2, PAK3, PAK-4 = assay: PAK isoform inhibition profile of example compounds; details: classification of example compounds in the description; underlying IC50 data in Table 8
Description: In some embodiments, the PAK inhibitor is a Group I PAK inhibitor that inhibits, for example, one or more Group I PAK polypeptides, for example, PAK1, PAK2, and/or PAK3. […] In some embodiments, the PAK inhibitor is a PAK2 inhibitor. In some embodiments, the PAK inhibitor is a PAK3 inhibitor. In some embodiments, the PAK inhibitor is a mixed PAK1/PAK3 inhibitor. […] In some embodiments, the PAK inhibitor is a Group II PAK inhibitor that inhibits one or more Group II PAK polypeptides, for example PAK-4, PAK5, and/or PAK6. In some embodiments, the PAK inhibitor is a PAK4 inhibitor. In some embodiments, the PAK inhibitor is a PAK5 inhibitor. In some embodiments, the PAK inhibitor is a PAK6 inhibitor.
as §1, §2, §3, §4, §5

Chain of PAK3 (O75914 whole entry): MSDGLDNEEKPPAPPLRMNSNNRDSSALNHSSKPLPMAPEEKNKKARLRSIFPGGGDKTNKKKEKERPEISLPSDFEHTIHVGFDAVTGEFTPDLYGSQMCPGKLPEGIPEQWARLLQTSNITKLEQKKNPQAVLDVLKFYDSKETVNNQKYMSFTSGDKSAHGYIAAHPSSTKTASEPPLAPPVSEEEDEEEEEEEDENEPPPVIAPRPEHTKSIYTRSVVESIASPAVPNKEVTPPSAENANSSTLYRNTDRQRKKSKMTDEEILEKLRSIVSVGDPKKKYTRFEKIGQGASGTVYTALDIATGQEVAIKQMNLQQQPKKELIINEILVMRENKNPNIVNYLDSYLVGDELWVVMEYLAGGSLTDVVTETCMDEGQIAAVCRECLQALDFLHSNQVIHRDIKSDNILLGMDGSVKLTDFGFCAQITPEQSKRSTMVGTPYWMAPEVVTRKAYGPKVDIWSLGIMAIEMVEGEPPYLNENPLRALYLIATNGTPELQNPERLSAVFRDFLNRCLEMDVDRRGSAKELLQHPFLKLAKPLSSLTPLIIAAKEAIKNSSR
Chain of PAK4 (O96013 whole entry): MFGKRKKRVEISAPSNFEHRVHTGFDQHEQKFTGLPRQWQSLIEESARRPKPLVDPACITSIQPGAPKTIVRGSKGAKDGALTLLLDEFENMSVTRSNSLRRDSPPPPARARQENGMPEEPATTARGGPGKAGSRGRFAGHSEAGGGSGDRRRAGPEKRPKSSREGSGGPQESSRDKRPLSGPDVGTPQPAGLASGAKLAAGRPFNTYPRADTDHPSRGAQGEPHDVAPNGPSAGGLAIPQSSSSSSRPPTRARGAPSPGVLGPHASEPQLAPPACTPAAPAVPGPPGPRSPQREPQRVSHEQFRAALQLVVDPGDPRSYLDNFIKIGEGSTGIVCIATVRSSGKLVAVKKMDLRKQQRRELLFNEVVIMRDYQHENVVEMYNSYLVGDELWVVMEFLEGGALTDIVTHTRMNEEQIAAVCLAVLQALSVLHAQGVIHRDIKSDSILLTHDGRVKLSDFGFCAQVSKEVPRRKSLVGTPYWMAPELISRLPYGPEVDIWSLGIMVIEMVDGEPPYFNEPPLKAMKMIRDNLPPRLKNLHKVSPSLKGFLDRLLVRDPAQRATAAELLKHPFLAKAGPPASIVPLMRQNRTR
Chain of PAK2 (Q13177 whole entry): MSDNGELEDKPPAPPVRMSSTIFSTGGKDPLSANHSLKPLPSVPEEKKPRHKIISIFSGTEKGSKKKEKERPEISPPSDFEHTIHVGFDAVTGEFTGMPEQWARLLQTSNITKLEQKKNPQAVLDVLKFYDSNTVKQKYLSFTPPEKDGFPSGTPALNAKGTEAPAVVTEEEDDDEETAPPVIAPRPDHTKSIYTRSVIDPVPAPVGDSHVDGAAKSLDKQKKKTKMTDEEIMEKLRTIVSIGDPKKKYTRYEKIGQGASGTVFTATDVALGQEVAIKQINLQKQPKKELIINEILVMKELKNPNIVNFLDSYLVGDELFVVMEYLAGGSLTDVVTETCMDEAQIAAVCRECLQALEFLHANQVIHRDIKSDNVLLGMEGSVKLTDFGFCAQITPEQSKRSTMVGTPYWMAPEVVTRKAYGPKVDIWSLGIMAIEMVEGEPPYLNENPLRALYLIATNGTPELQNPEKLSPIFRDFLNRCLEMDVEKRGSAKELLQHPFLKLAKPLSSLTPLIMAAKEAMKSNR
Chain of PAK1 (Q13153 whole entry): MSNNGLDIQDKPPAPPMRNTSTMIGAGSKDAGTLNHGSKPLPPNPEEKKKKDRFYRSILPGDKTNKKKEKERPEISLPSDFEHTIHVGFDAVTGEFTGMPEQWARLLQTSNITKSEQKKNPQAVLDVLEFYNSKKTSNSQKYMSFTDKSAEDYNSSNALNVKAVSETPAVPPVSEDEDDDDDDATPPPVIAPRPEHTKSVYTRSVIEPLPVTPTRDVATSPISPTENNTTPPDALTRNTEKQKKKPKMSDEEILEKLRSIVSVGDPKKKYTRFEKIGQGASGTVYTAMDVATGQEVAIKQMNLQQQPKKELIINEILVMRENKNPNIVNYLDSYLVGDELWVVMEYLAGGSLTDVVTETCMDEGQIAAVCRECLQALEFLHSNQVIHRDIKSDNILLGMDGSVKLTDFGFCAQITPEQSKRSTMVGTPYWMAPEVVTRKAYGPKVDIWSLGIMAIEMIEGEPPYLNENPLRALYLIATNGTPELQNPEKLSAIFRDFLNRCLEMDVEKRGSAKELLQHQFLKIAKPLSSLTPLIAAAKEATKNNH

IC50 (PAK1) [µM] | IC50 (PAK2) [µM] | IC50 (PAK3) [µM] | IC50 (PAK4) [µM] | Compound | PAK inhibitor type (isoform profile) (PAK1, PAK2, PAK3, PAK-4)
> 10 | > 10 | > 10 | < 1 | CC(=O)N1CCN(c2ccc(Nc3nccc(-c4ccc(NCCN)nc4)n3)cc2)CC1 [Compound 115] | 
1 to 10 | 1 to 10 |  | 1 to 10 | CCCNc1ccc(-c2ccnc(Nc3ccc(N4CCN(C)CC4)cc3)n2)cn1 [Compound 105] | 
1 to 10 | > 10 | > 10 | 1 to 10 | CC(c1ccccc1C(F)(F)F)n1c(=O)ccc2cnc(Nc3ccc(N4CCN(C)CC4)cc3)nc21 (centres unmarked) [Compound 70] | 
1 to 10 | > 10 | > 10 | 1 to 10 | COc1cccc2c1C(n1c(=O)ccc3cnc(Nc4ccc(N5CCN(C)CC5)cc4)nc31)CC2 (centres unmarked) [Compound 1, 8-(7-methoxy-2,3-dihydro-1H-inden-1-yl)-2-(4-(4-methylpiperazin-1-yl)phenylamino)pyrido[2,3-d]pyrimidin-7(8H)-one] | 
 |  |  |  | CN1CCN(c2ccc(Nc3ncc4ccc(=O)n(Cc5ccccc5Cl)c4n3)cc2)CC1 [Compound 33] | mixed PAK1/PAK2 inhibitor
 | < 1 |  |  | CSc1cccc(F)c1Cn1c(=O)ccc2cnc(Nc3ccc(N4CCN(C)CC4)cc3)nc21 [Compound 91, 8-(2-fluoro-6-(methylthio)benzyl)-2-(4-(4-methylpiperazin-1-yl)phenylamino)pyrido[2,3-d]pyrimidin-7(8H)-one] | mixed PAK1/PAK2/PAK3/PAK-4 inhibitor
1 to 10 | > 10 |  | > 10 | CN1CCN(c2ccc(Nc3ncc4ccc(=O)n(Cc5cccc(Cl)c5)c4n3)cc2)CC1 [Compound 34] | 
 |  |  |  | CN1CCN(c2ccc(Nc3ncc4ccc(=O)n(C5CCc6ccccc65)c4n3)cc2)CC1 (centres unmarked) [Compound 7] | PAK1 inhibitor
1 to 10 | > 10 |  | 1 to 10 | CN1CCN(c2ccc(Nc3nccc(-c4ccc(NCCN5CCOCC5)nc4)n3)cc2)CC1 [Compound 99] | 
1 to 10 | 1 to 10 | > 10 | < 1 | CC(C)CNc1ccc(-c2ccnc(Nc3ccc(N4CCN(C)CC4)cc3)n2)cn1 [Compound 104] | 
 |  |  |  | COc1ccc(F)cc1Cn1c(=O)ccc2cnc(Nc3ccc(N4CCN(C)CC4)cc3)nc21 [Compound 56] | PAK1 inhibitor
< 1 | 1 to 10 |  | 1 to 10 | CN1CCN(c2ccc(Nc3nccc(-c4ccc(NCCCN)nc4)n3)cc2)CC1 [Compound 98] | PAK1 inhibitor
 |  |  |  | CN(c1ccc(Nc2ncc3ccc(=O)n(Cc4ccccc4C(F)(F)F)c3n2)cc1)C1CCCNC1 (centres unmarked) [Compound 14] | mixed PAK1/PAK2/PAK3/PAK-4 inhibitor
 |  |  |  | CN1CCN(c2ccc(Nc3ncc4ccc(=O)n(C5CCC(C)(C)c6ccccc65)c4n3)cc2)CC1 (centres unmarked) [Compound 21] | mixed PAK1/PAK2 inhibitor
 |  |  |  | CN1CCN(c2ccc(Nc3ncc4ccc(=O)n(C5Cc6ccccc6C5)c4n3)cc2)CC1 [Compound 18] | mixed PAK1/PAK-4 inhibitor
1 to 10 | 1 to 10 | > 10 | < 1 | CN1CCN(c2ccc(Nc3nccc(-c4ccc(NCCN5CCCCC5)nc4)n3)cc2)CC1 [Compound 100] | 
 |  |  |  | CN1CCN(c2ccc(Nc3ncc4ccc(=O)n(C5CCCC5)c4n3)cc2)CC1 [Compound 2] | PAK1 inhibitor
1 to 10 | > 10 |  | > 10 | CN1CCN(c2ccc(Nc3nccc(-c4ccc(Cl)nc4)n3)cc2)CC1 [Compound 97] | 
1 to 10 | > 10 |  | > 10 | CN(C)CCOc1ccc(-c2ccnc(Nc3ccc(N4CCN(C)CC4)cc3)n2)cn1 [Compound 102] | 
 |  |  |  | CN1CCN(c2ccc(Nc3ncc4ccc(=O)n(Cc5ccccc5SC(F)(F)F)c4n3)cc2)CC1 [Compound 45] | mixed PAK1/PAK2/PAK3/PAK-4 inhibitor
 |  |  |  | COc1ccccc1Cn1c(=O)ccc2cnc(Nc3ccc(N4CCN(C)CC4)cc3)nc21 [Compound 36] | PAK1 inhibitor

IC50 (PAK1) [µM] | IC50 (PAK2) [µM] | IC50 (PAK3) [µM] | IC50 (PAK4) [µM] | Compound | PAK inhibitor type (isoform profile) (PAK1, PAK2, PAK3, PAK-4)
 | < 1 |  |  | O=c1c(-c2ccccc2)cc2cnc(Nc3ccc(N4CCNCC4)cc3)nc2n1Cc1ccccc1C(F)(F)F [Compound 120] | inhibits all three Group I PAK isoforms (PAK1, 2 and PAK3) with equal or similar potency
 |  |  |  | CN1CCN(c2ccc(Nc3ncc4ccc(=O)n(Cc5ccccc5OC(F)(F)F)c4n3)cc2)CC1 [Compound 43] | mixed PAK1/PAK2 inhibitor
> 10 | > 10 |  | > 10 | CN1CCN(c2ccc(N(C)c3nccc(-c4ccc(NCCN)nc4)n3)cc2)CC1 [Compound 114] | 
 |  |  |  | O=c1ccc2cnc(Nc3ccc(N4CCNCC4)c(F)c3)nc2n1C1Cc2ccccc2C1 [Compound 22] | mixed PAK1/PAK2/PAK-4 inhibitor
 |  |  |  | CN1CCN(c2ccc(Nc3ncc4ccc(=O)n(C5CCc6ccccc6C5)c4n3)cc2)CC1 (centres unmarked) [Compound 19] | mixed PAK1/PAK2/PAK3/PAK-4 inhibitor
 |  |  |  | O=c1ccc2cnc(Nc3ccc(OC4CCCNC4)cc3)nc2n1Cc1ccccc1C(F)(F)F (centres unmarked) [Compound 15] | mixed PAK1/PAK2/PAK3/PAK-4 inhibitor
 |  |  |  | O=c1ccc2cnc(Nc3ccc(OC4CCNCC4)cc3)nc2n1Cc1ccccc1C(F)(F)F [Compound 13] | mixed PAK1/PAK2/PAK3/PAK-4 inhibitor
 | 1 to 10 |  |  | Cc1cc(Nc2nccc(-c3ccc(NCCN)nc3)n2)ccc1N1CCN(C)CC1 [Compound 106] | mixed PAK1/PAK-4 inhibitor
 | < 1 |  |  | CN1CCN(c2ccc(Nc3ncc4ccc(=O)n(Cc5c(F)cccc5C(F)(F)F)c4n3)cc2)CC1 [Compound 60] | mixed PAK1/PAK2/PAK3/PAK-4 inhibitor
 |  |  |  | CN1CCCC(Nc2ccc(Nc3ncc4ccc(=O)n(Cc5ccccc5C(F)(F)F)c4n3)cc2)C1 (centres unmarked) [Compound 63] | mixed PAK1/PAK2/PAK3/PAK-4 inhibitor
 |  |  |  | CN1CCN(c2ccc(Nc3ncc4ccc(=O)n(CCc5ccccc5)c4n3)cc2)CC1 [Compound 51] | mixed PAK1/PAK2/PAK-4 inhibitor
 | < 1 |  |  | O=c1ccc2cnc(Nc3ccc(N4CCNCC4)c(F)c3)nc2n1Cc1c(Cl)cccc1C1CC1 [Compound 86] | inhibits all three Group I PAK isoforms (PAK1, 2 and PAK3) with equal or similar potency
 |  |  |  | O=c1ccc2cnc(Nc3ccc(N4CCNCC4)c(F)c3)nc2n1C1CCc2ccccc2C1 (centres unmarked) [Compound 23] | mixed PAK1/PAK2/PAK3/PAK-4 inhibitor
 |  |  |  | CCOc1ccccc1Cn1c(=O)ccc2cnc(Nc3ccc(N4CCN(C)CC4)cc3)nc21 [Compound 64] | inhibits all three Group I PAK isoforms (PAK1, 2 and PAK3) with equal or similar potency
1 to 10 | 1 to 10 |  | 1 to 10 | CN(C)CCNc1ccc(-c2ccnc(Nc3ccc(N4CCN(C)CC4)cc3)n2)cn1 [Compound 101] | 
 |  |  |  | CN1CCN(c2ccc(Nc3ncc4ccc(=O)n(Cc5ccccc5C(F)(F)F)c4n3)cc2)CC1 [Compound 44] | mixed PAK1/PAK2/PAK3/PAK-4 inhibitor
1 to 10 | > 10 |  | > 10 | CN1CCN(CCNc2ccc(-c3ccnc(Nc4ccc(N5CCN(C)CC5)cc4)n3)cn2)CC1 [Compound 103] | 
1 to 10 | 1 to 10 |  | 1 to 10 | CN(C)CCOc1ccc(Nc2nccc(-c3ccc(NCCN)nc3)n2)cc1 [Compound 96] | 
 |  |  |  | CN1CCN(c2ccc(Nc3ncc4ccc(=O)n(Cc5ccccc5OC(F)F)c4n3)cc2)CC1 [Compound 46] | mixed PAK1/PAK2/PAK3/PAK-4 inhibitor
 |  |  |  | CN1CCN(c2ccc(Nc3ncc4ccc(=O)n(Cc5ccccc5-n5cccn5)c4n3)cc2)CC1 [Compound 55] | PAK1 inhibitor
 |  |  |  | O=c1c(-c2ccccc2)cc2cnc(Nc3ccc(NC4CCCNC4)cc3)nc2n1Cc1ccccc1C(F)(F)F (centres unmarked) [Compound 121] | inhibits all three Group I PAK isoforms (PAK1, 2 and PAK3) with equal or similar potency
